Data on six compounds can be found in US20100137403A1, “METHOD FOR ENHANCING COGNITION OR INHIBITING COGNITIVE DECLINE” (priority 2008, published 2010).

“Also recorded” adds a separate entry of the source. Where two headings read alike, the source gives them in different places.

One data set deals with young adult mice. The following applies: cited from earlier work.
For a further data set, the system named is mice. As to the kind of experiment: Lethality of phenylalkylamine Ca2+ channel blockers in mice. Conditions: 10 mg/kg i.v. It is filed as in vivo. The text has this: […]. The doses administered for these studies were selected to reflect the previously characterized potency of each of the drugs on blocking L-type Ca^2+ channel function. […].
Data set [1] has as its system nucleus basalis magnocellularis lesioned rats. Conditions: cited from earlier work.
The test system of a further data set is mouse cerebellar neurons. The following applies: cited from earlier work.
Data set [2] relates to C57BL/6 mice. Conditions: general statement on the SAT test; cited from earlier work.
The next data set deals with Sprague-Dawley rats. Put plainly: Novel object recognition (NOR) test of long-term memory. It is filed as in vivo, rat. The text has this: The novel object recognition (NOR) paradigm is a rodent model of recognition learning memory retrieval and takes advantage of the spontaneous behavior of rodents to investigate a novel object by comparison with a familiar object (Ennaceur & Delacour (1988) Behav Brain Res. 31:47-59). NOR has been employed extensively to indicate potential cognition-enhancing properties of test compounds.
The objective of this study was to test cognition-enhancing properties of tiapamil using the NOR test of long-term memory in healthy male rats. Adult male Sprague-Dawley rats were used in this study. Animals were placed in the experimental rooms at postnatal day 80 and assigned unique identification numbers (tail marked). Pairs were housed in polycarbonate cages with filter tops and acclimated for 7 days prior to commencing any studies. Animals were maintained in a 12 hour light/dark cycle with room temperature maintained at 22±2° C. with relative humidity maintained at approximately 50%. Food and water were provided ad libitum. All animals were examined, handled, and weighed for two days prior to initiation of the study to assure adequate health and suitability and to minimize non-specific stress associated with manipulation. Each animal was randomly assigned across treatment groups (8 animals per group) and balanced by cage numbers. […]
Tiapamil (10 or 30 mg/kg) was dissolved in saline and administered i.p. 1 or 8 hours prior to training. […] The rats were assessed for cognitive ability in a test apparatus comprising an open-field arena placed in a sound-attenuated room under dimmed lighting. […] All tests were video-scored blind. […] This 10-minute training period, T1, was recorded for subsequent analysis if necessary. […] After 24 hours, each rat was placed again in the test arena for 10 minutes (T2) in presence of a copy of the familiar object and a novel object, and the time spent exploring both objects was recorded. […] The NOR index was measured as the ratio of time spent exploring the novel object over total time spent exploring both objects (familiar+novel), during retention session T2.

The conditions of data set [3]: in vivo; cited from earlier work.
Data set [4] deals with NF-κB. As to the kind of experiment: In vivo bio-photonic imaging of NF-κB luciferase reporter transgenic mice. Conditions: for NF-κB activation in the brain: Example 4. Set-up: species or system mouse. As for the experimental part:
The animal used to establish this criterion is preferably a laboratory animal, more preferably a rodent, illustratively a mouse. […] In this technique, a test compound, in this case a Ca^2+ channel blocker, is administered by intravenous (i.v.) injection to transgenic mice having a firefly luciferase reporter driven by one or more NF-κB response elements fused to the reporter (NF-κB::LUC mice). NF-κB expression, nuclear translocation and binding to the response elements in any anatomical or sub-anatomical region of a mouse results in activation of the luciferase reporter in that region. Activated luciferase, in presence of a luciferin substrate, emits light which can be detected and quantitated, and can be used in whole-body imaging to identify specific anatomical or sub-anatomical regions where the luciferase is activated as a result of NF-κB expression. Mice can be anesthetized and imaged at time intervals after administration of the test compound to reveal temporal as well as spatial distribution of NF-κB expression.
In vivo bio-photonic imaging was used to investigate temporal and spatial modulation of physiological processes following acute tiapamil administration to mice. For these studies we employed an NF-κB luciferase transgenic line that was constructed using three NF-κB response elements fused to a firefly luciferase reporter gene. The effect of tiapamil on NF-κB activation was monitored as modulation of detectable luciferase reporter activity, a surrogate for NF-κB activation and nuclear translocation with subsequent binding to the response elements of the reporter. Luciferase activity was detected by its ability to cleave luciferin, a luciferase substrate. Light emitted was detected and analyzed using a highly sensitive CCD imaging system.
For the present study, female NF-κB transgenic mice (5 per treatment) received tiapamil i.v. at 1 or 10 mg/kg in a saline vehicle, or vehicle control. At 2, 4 and 6 hours after administration, the animals were anesthetized and imaged. Visual and quantitative analysis was then performed based on counting photons of light emitted from specific anatomical regions. […] The data are depicted quantitatively in FIG. 1.

In data set [5] the test system is C57BL/6 mice. Put plainly: Spontaneous alternation task (SAT) test of short-term memory in T-maze. It is filed as in vivo, mouse. The following applies: for alternation (short-term memory) in healthy mice / alternation (short-term memory) in scopolamine-treated mice: 30 mg/kg i.p. 8 hours prior to the SAT; for alternation (short-term memory) in healthy mice: administered alone; for alternation (short-term memory) in scopolamine-treated mice: scopolamine 1 mg/kg i.p. 30 minutes prior.

Data set [6] relates to NF-κB. Put plainly: Luciferase imaging of 1 mm coronal brain sections from NF-κB transgenic mice. The following applies: 1 and 10 mg/kg, 6-hour time point. The data set is classed as in vivo, mouse. The source says:
Evaluation of tiapamil in the NF-κB transgenic mouse line was repeated essentially as described in Example 1 and whole-body images were collected at the 6-hour time point. Brains were rapidly removed, chilled in ice-cold saline and sliced into 1 mm coronal sections. The sections were then placed onto glass slides, covered with luciferin solution (Luciferase Assay System substrate, Promega) and subsequently imaged in an IVIS 200 imaging system (Caliper Corp.) to evaluate effect of tiapamil on regional distribution of luciferase activity in the brain.

Data set [7] deals with NF-κB. Put plainly: In vivo bio-photonic imaging of NF-κB luciferase reporter transgenic mice. Set-up: species or system mouse. The following applies: for NF-κB activation in brain (dorsal brain images): Example 3.

For `COc1ccc(CCN(C)CCCC(C#N)(c2ccc(OC)c(OC)c2)C(C)C)cc1OC` (centres unmarked) [verapamil], the linear maze acquisition entry in the data set on young adult mice (at the most effective retention dose) is “failed to enhance acquisition”. Further, in the data set on young adult mice (young adult mice), the linear maze retention result was “enhancement effects at three doses” and the “retention of passive avoidance learning” value was “failed to facilitate retention”. In the data set on mice, the “Deaths (n = 5)” value was 5. Further, in data set [1] (2.5 and 5 mg/kg), the “acquisition and performance aspects of active avoidance” value is recorded as “improved”. In addition, the “acquisition and performance aspects of active avoidance” value in data set [1] (lower (1 mg/kg) and higher (10 mg/kg) doses) is “ineffective”. In addition, the genetically-inhibited neurite extension in the data set on mouse cerebellar neurons (mouse cerebellar neurons) is “could restore”. Further, in the data set with mouse cerebellar neurons (normal neurons exposed to high concentrations of ethanol), the neuroprotection result is recorded as “neuroprotective”.
Turning to `CN1[C@@H]2C[C@@H](OC(=O)[C@H](CO)c3ccccc3)C[C@H]1[C@@H]1O[C@@H]12` [scopolamine], the spontaneous alternation entry in the data set on C57BL/6 mice [2] is “impaired”.
Consider `COc1ccc(CCN(C)CCCC2(c3ccc(OC)c(OC)c3)S(=O)(=O)CCCS2(=O)=O)cc1OC` [tiapamil, N-(3,4-dimethoxyphenethyl)-2-(3,4-dimethoxyphenyl)-N-methyl-m-dithian-2-propylamin-1,1,3,3-tetroxide], for which the “NOR index 24 hours after training” value in the data set with Sprague-Dawley rats (10 mg/kg i.p., 1 hour) is “significantly increased NOR index”; in the data set with Sprague-Dawley rats (10 mg/kg i.p., 8 hours), “significantly increased NOR index”; in the data set on Sprague-Dawley rats (30 mg/kg i.p.) it was “not effective”. The “efficacy on aspects of ischemic disease” value in data set [3] is “ineffective”. For the same compound, in the data set on NF-κB [4] (10 mg/kg i.v., surviving animals, 2, 4, 6 hours, 10 mg/kg), the “NF-κB activation in the brain” value is on record as “robust effect; also recorded: substantially increased”. Also, the “NF-κB activation in peripheral anatomical regions” value in the data set on NF-κB [4] (i.v. 1 or 10 mg/kg) is “no effect”. Further, the “NF-κB expression in the head” value in the data set with NF-κB [4] (i.v. 1 or 10 mg/kg, 4 and 6 hours after treatment) is “dose-dependent increase”. For the same compound, the figures for the “alternation (short-term memory) in healthy mice” value in the data set with C57BL/6 mice [5] and with C57BL/6 mice [5] (listed as Tiapamil) were “enhances short-term memory” and “increased the number of alternation events”, respectively. The results for the “alternation (short-term memory) in scopolamine-treated mice” value with C57BL/6 mice [5] and with C57BL/6 mice [5] (listed as Tiapamil) were “reverses memory deficits” and “prevented scopolamine-induced impairment”, respectively. The “luciferase expression in all regions of the brain evaluated” value with NF-κB [6] is “dramatic effect”. For the same compound, in the data set on NF-κB [7] (10 mg/kg i.v., 2, 4 and 6 hours), the “NF-κB activation in brain (dorsal brain images)” value is listed as “robust effect”. The “NF-κB signaling in the brain (light emission from head region, dorsal view)” value with NF-κB [7] (Example 5, i.p., 2, 4, 6 and 8 hours) is “enhanced”.
Turning to `O=C(O)c1cc(/N=N/c2ccc(S(=O)(=O)Nc3ccccn3)cc2)ccc1O` [sulfasalazine], the “effect on tiapamil-induced short-term memory enhancement” value in the data set on C57BL/6 mice [5] (sulfasalazine 3 mg/kg i.p. co-administered with tiapamil 30 mg/kg 8 hours prior to the SAT, healthy mice) is given as “loss of tiapamil's memory-enhancing effects”. The “measureable NF-κB activity” value is recorded as “increased amount of measureable NF-κB activity” with NF-κB [7] (Example 5, co-administration of tiapamil and high-dose sulfasalazine); “increased amount of measureable NF-κB activity” with NF-κB [7] (Example 5, high-dose sulfasalazine alone).
For the compound `COc1cc2c(cc1OC)C(=O)C(CC1CCN(Cc3ccccc3)CC1)C2` (centres unmarked) [donepezil], the spontaneous alternation entry in the data set with C57BL/6 mice [2] is given as “enhanced”.
Turning to gallopamil, the “efficacy on aspects of ischemic disease” value in data set [3] was “ineffective”. In addition, the “NF-κB activation in the brain” value is recorded as “induced NF-κB activation; also recorded: increased NF-κB expression in the brain” in the data set on NF-κB [4] (1 mg/kg i.v., 3 surviving animals, 1 mg/kg) and “minor to no change” with NF-κB [4] (10 mg/kg i.v., surviving animals, 2, 4, 6 hours). In addition, the “NF-κB activation in brain (dorsal brain images)” value in the data set with NF-κB [7] (0.5 mg/kg i.v., 2- and 4-hour time points) is “marginal effect”; with NF-κB [7] (0.5 mg/kg i.v., 6-hour time point), “more dramatic effect”.
